A short description of series [1]: pKa values of different proton sources (protic additives). The note with it: for pKa: water; for pKa (H20): in water.
For series [2] the following is noted: aqueous system; cited from earlier work.
The nature of series [3]: Properties of host ionic liquid BDMeIm Tf (gravimetric, Cottrell). Type of series: physicochemical. Here is the method:
A series of protic additives were added into an ionically conductive medium in order to examine the effects of such additives upon oxygen reduction reaction (“ORR”). An aprotic ionic liquid BdMelm:Tf was used as the host for the additive. A photograph of an experimental setup is provided in FIG. 5A, with FIG. 5B showing a cartoon of a close-up of the measurement tube/chamber. […] See e.g., FIG. 5F. Also, the IL had the benefit of the superacidity of Tf, which minimizes solvent leveling effects. Additional benefits of this dry aprotic IL system include also invariant electrode, high reversibility, and high reactivity, as shown in cyclic voltammagrams (CV) in FIG. 5C and the result of the Kouteeky-Levich ([…]) analysis with respect to the number of electrons per O2 vs. potential in FIG. 5D.

The pKa is the pH at which an ionisable group is half protonated.

Where two headings read alike, the source gives them in different places.

Turning to `OCC(F)(F)F` [2,2,2-trifluoroethanol], in series [1], the pKa was determined as 12.5. As to `CCN(C)CC.O=S(=O)(O)C(F)(F)F` [n,n-diethyl-n-methylammonium triflate], the “pKa (H20)” value in series [1] is recorded as 10.6.

As for `[O]O` [superoxide], the pKa entry in series [2] is “about 4.7”. `CCCCN=C(N(C)C)N(C)C` [2-butyl-1,1,3,3-tetramethylguanidinium triflate] came in with a pKa in series [1] of 13.6. Take `CCCCn1cc[n+](C)c1C.O=S(=O)([O-])C(F)(F)F` [BDMelm Tf]: the density entry in series [3] is on record as “about 1.4 g/mL”. For the same compound, the oxygen solubility entry in series [3] (measured gravimetrically and through Cottrell) is listed as “about 2.5 mM”. As to `O.O=S(=O)(O)C(F)(F)F` [hydronium triflate], in series [1], the “pKa (H20)” value is −1.7. On the same count and under the same terms, with `Cc1nccn1C.O=S(=O)(O)C(F)(F)F` [1,2-dimethylimidaozlium triflate] the figure was 7.4.

For the compound `OO` [peroxide], in series [2], the pKa was 11.63.

These data come from US11196057B2, “Metal-air cell with performance enhancing additive” (ARIZONA BOARD OF REGENTS ACTING FOR AND ON BEHALF OF …, priority 2010, dated 2021).
